Laboratory results as given in US5561110A, “Method for the treatment of the complications and pathology of diabetes” (Peptide Technology Limited, priority 1994, dated 1996).
Entries after “also recorded” stand apart in the source; their conditions may differ.

How the values were obtained:
[1] = system: Salmonella typhimurium TA 100; experiment: Ames test, plate incorporation, his- to his+ reversion
Procedure: Preparation of glycated compounds was performed according to Kim et al. (1991). In brief, D-glucose (1M) and each of the following: L-carnosine, L-lysine, L-alanine (all 1M) were dissolved in distilled water, the pH adjusted to 7 and the mixtures heated at 100° C. for 80 min. The solutions (50 μl and 250 μl ) were evaluated against strain TA 100 of Salmonells typhimurium using the plate incorporation method (Maron & Ames, 1983) with or without metabolic activation by a standard rat liver microsomal (S-9) preparation.
Salmonella tyrphimurium TA 100 indicator strain his^- to his^+ reversion system. Data represent the mean number of revertants per plate and their standard deviation for the test solutions and controls with and without metabolic stimulation by rat liver microsomal (S-9) preparation.

ovalbumin = experiment: Glycation of ovalbumin by DHA with anti-glycator, gel filtration on Superose 6; assay type: biochemical; conditions: for effectiveness as anti-glycator, in words: ovalbumin + DHA, 60° C., 7 hours
Procedure: Gelfiltration Chromatography of Glycated Proteins HPLC Specifications:
COLUMN Superose 6, Pharmacia
SAMPLE: 100μ of Protein Sample (Approximately 100 μg)
Calibration was performed using Pharmacia high molecular weight (HMW) and low molecular weight (LMW) calibration kit.
To compare the effect of both carnosine and aminoguanidine on glycation bovine serum albumin (BSA) and ovalbumin was incubated with a constant amount of DHA and varying concentrations of either anti-glycator at 60° C. At the start of the reaction and after seven hours aliquots were taken and the progress of the reaction analysed by gel filtration on a Superose 6 column. Crosslinking or fragmentation of protein became clearly visible as a change in retention time compared to the untreated protein used as control. Some compounds eluted after theoretical retention time for the smallest compound. They tend to interfere with the column resin even at high ionic strength and presence of a detergent (Tween 20). They are not necessary small compounds but rather highly charged and reactive. […] In all aminoguanidine samples uncharacterised reaction products are formed predominantly at high concentrations (described as low molecular weight form "LMW" because the retention time is longer then observed for all other compounds). […] LMW were also observed when ovalbumin was replaced by bovine serum albumin in the incubation mixture (not shown). The LMW forms were never present in the camosine samples. A good measure for the effectiveness of an
Legend: ovalbumin was incubated with DHA for 7 hours in the presence of
various concentrations of either carnosine or aminoguanidine. Reaction
products were separated on a gelfiltration column (Superose 6) and peaks
grouped according to their retention times: HMW, high molecular weight
(15-30 min); albumin monomer (35 min); and late eluting compounds LMW, lo
molecular weight (>40 min). Carnosine and aminoguanidine concentration
[control] 0 mM, [A] 600 mM, [B] 300 mn, [C] 100 mM, [D] 50 mM.

diabetic models = conditions: 30 weeks of feeding; cited from earlier work
[2] = Body weight and organ weights of cholesterol-fed rabbits; assay type: in vivo, rabbit
Procedure: (§1) Male New Zealand white cross rabbits fed a high cholesterol (2%) diet were randomised to control or carnosine treatment 2% and plasma was assayed for cholesterol and triglycerides and carnosine. All animals received 100 g of food pellets/day and free access to water.
(§2) At the end of the 8 week treatment period, the rabbits were anaesthetised with pentobarbitone (325 mg/kg) and the total aorta removed. The arch, thoracic and abdominal regions were isolated by cutting the aorta circumferentially 1.0 cm proximal to the first pair of intercostal arteries and 0.3 cm above the coeliac artery. The adventitia was carefully dissected away, and the artery longitudinally cut to expose the intimal surface. The aorta was fixed in 10% buffered formalin for 48 hours. The lipid plaques in these vessels were then stained using Sudan IV and mounted with an aqueous mounting medium (Kaiser's Glycerol Jelly). The lesioned areas were directly traced from the mounted sections using an image analyser (Eye Com 850 image processor). Computer-aided planimetry was used to macroscopically determine the percentage of the affected area. Representative segments of atherosclerotic plaque were removed for confirmation by light microscopy. Results are expressed as mean ±SEM.

[3] = system: Male New Zealand white cross rabbits fed a high cholesterol (2%) diet; experiment: Atherosclerotic plaque formation in aorta of cholesterol-fed rabbits; assay type: in vivo, rabbit; conditions: 8 weeks
Procedure: as §1, §2
Coronary heart disease is one of the most common causes of deaths in diabetics and non-diabetics alike. […]

mammals = conditions: cited from earlier work
[4] = system: streptozotocin induced diabetic rat; experiment: Formation of cataracts in streptozotocin induced diabetic rats; assay type: in vivo; conditions: after 8 week on carnosine diet (56 days), 2% in drinking water
Procedure: (§3) Male Sprague-Dawley rats weighing 200-250 g and 6 weeks of age were randomised to the following three treatment groups: control, diabetic, and carnosine-treated diabetic rats. Diabetes was induced with streptozotozen STZ(60 mg/kg body weight in citrate buffer, pH 4.5, i.v.), and all animals with plasma glucose levels >20 mM after 1 week were included in the study. Diabetic rats were randomised to receive either no therapy or 2% carnosine in drinking water.
Cataract is an opacification of the ocular lens sufficient to impair vision. Diabetes has been associated with cataract for many years and many laboratory experiments support the view that diabetes is the cause of one form of cataract. Diabetes in animals can be induced by streptozotozin and opacity of the lens starts to develop by 20 days after injection but dense opacities appear only after about 100 days depending on age at injection.
In cataract adducts of sugars to proteins including lens proteins have been identified and quantified. In most tissues there is little accumulation of late Maillard products even in diabetes but proteins in the lens nucleus have time not only to accumulate early glycation products but also for them to change into yellow Maillard products. […] Since this was measured at 56 days, the half way mark of the experiment, the trend indicates a reduction in cataract formation by carnosine feeding.

bovine serum albumin = experiment: Dihydroxyacetone-induced modification (non-enzymic glycosylation, gel formation) of bovine serum albumin; assay type: biochemical; conditions: BSA 50 mg/ml, 250 mM dihydroxyacetone, 250 mM L-carnosine, 23° C., 4 weeks
Procedure: Physiological concentrations of bovine serum albumin (50 mg/ml in 50 mM Na-phosphate buffer pH 7.0) were incubated with or without 250 mM dihydroxyacetone in the presence and absence of 250 mM L-carnosine at 23° C. for 4 weeks. The experiment was performed under sterile conditions and the ionic strength was the same in all vials.

[5] = system: streptozotocin induced diabetic rat; experiment: Albuminuria, glycated haemoglobin and blood glucose in diabetic rats; assay type: in vivo; conditions: week 8
Procedure: as §3

Question: For `CC(=O)Nc1ccc2c(c1)Cc1ccccc1-2` [2AAF, reference compound], which “Revertants per Plate with TA 100, With S-9” value ([1]; positive control, dose not given) is on record?
Answer: Its value is 500.

Question: Which results are given for `N=C(N)NN` [Aminoguanidine, aminoguanidine, reference compound]?
Answer: Percent Area of Chromatogram, HMW (ovalbumin; after 7 hours, [A] 600 mM): 0%; Percent Area of Chromatogram, LMW (ovalbumin; after 7 hours, [A] 600 mM): 69%; Percent Area of Chromatogram, Monomer (ovalbumin; after 7 hours, [A] 600 mM): 31%; Percent Area of Chromatogram, HMW (ovalbumin; after 7 hours, [B] 300 mn): 8%; Percent Area of Chromatogram, LMW (ovalbumin; after 7 hours, [B] 300 mn): 72%; Percent Area of Chromatogram, Monomer (ovalbumin; after 7 hours, [B] 300 mn): 20%; Percent Area of Chromatogram, HMW (ovalbumin; after 7 hours, [C] 100 mM): 0%; Percent Area of Chromatogram, LMW (ovalbumin; after 7 hours, [C] 100 mM): 49%; Percent Area of Chromatogram, Monomer (ovalbumin; after 7 hours, [C] 100 mM): 41%; Percent Area of Chromatogram, HMW (ovalbumin; after 7 hours, [D] 50 mM): 38%; Percent Area of Chromatogram, LMW (ovalbumin; after 7 hours, [D] 50 mM): 22%; Percent Area of Chromatogram, Monomer (ovalbumin; after 7 hours, [D] 50 mM): 40%; Percent Area of Chromatogram, HMW (ovalbumin; t0 hours, [A] to [D] 600-50 mM): 0%; Percent Area of Chromatogram, LMW (ovalbumin; t0 hours, [A] to [D] 600-50 mM): 0%; Percent Area of Chromatogram, Monomer (ovalbumin; t0 hours, [A] to [D] 600-50 mM): 100%; amount of glycated haemoglobin (diabetic models): does not reduce

Question: What does the source list for `NCCC(=O)N[C@@H](Cc1cnc[nH]1)C(=O)O` [carnosine, β-alanyl-L-histidine]?
Answer: body weight versus control, in words ([2]; 8 week treatment period): no difference; weight of various organs versus control, in words ([2]; 8 weeks): No difference; Body Weight ([2]; Week 0): 3.33 ± 0.09 kg; Body Weight ([2]; Week 8): 2.68 ± 0.12 kg; Weight of organs, Heart ([2]; after 8 weeks treatment): 6.12 ± 0.27 g; Weight of organs, Kidney ([2]; after 8 weeks treatment): 17.53 ± 0.69 g; Weight of organs, Liver ([2]; after 8 weeks treatment): 124.40 ± 6.36 g; Percent Area of Chromatogram, HMW (ovalbumin; after 7 hours, [A] 600 mM): 9%; Percent Area of Chromatogram, LMW (ovalbumin; after 7 hours, [A] 600 mM): 0%; Percent Area of Chromatogram, Monomer (ovalbumin; after 7 hours, [A] 600 mM): 91%; Percent Area of Chromatogram, HMW (ovalbumin; after 7 hours, [B] 300 mn): 6%; Percent Area of Chromatogram, LMW (ovalbumin; after 7 hours, [B] 300 mn): 0%; Percent Area of Chromatogram, Monomer (ovalbumin; after 7 hours, [B] 300 mn): 94%; Percent Area of Chromatogram, HMW (ovalbumin; after 7 hours, [C] 100 mM): 3%; Percent Area of Chromatogram, LMW (ovalbumin; after 7 hours, [C] 100 mM): 0%; Percent Area of Chromatogram, Monomer (ovalbumin; after 7 hours, [C] 100 mM): 97%; Percent Area of Chromatogram, HMW (ovalbumin; after 7 hours, [D] 50 mM): 25%; Percent Area of Chromatogram, LMW (ovalbumin; after 7 hours, [D] 50 mM): 0%; Percent Area of Chromatogram, Monomer (ovalbumin; after 7 hours, [D] 50 mM): 75%; effectiveness as anti-glycator, in words (ovalbumin): more effective at all concentrations compared to aminoguanidine; effectiveness as anti-glycator, in words (ovalbumin; listed as Carnosine): reduced formation of high molecular weight compounds and was slightly more effective at low concentration compared to aminoguanidine; Percent Area of Chromatogram, HMW (ovalbumin; t0 hours, [A] to [D] 600-50 mM): 0%; Percent Area of Chromatogram, LMW (ovalbumin; t0 hours, [A] to [D] 600-50 mM): 0%; Percent Area of Chromatogram, Monomer (ovalbumin; t0 hours, [A] to [D] 600-50 mM): 100%; atherosclerotic plaque formation, in words [3]: can reduce but not prevent plaque formation; toxicity, in words (mammals; in vivo): virtually non-toxic; level that can be administered (mammals; mammals): 5-10 g/kg body weight; Revertants per Plate with TA 100, With S-9 ([1]; Dose 50 μl): 179 ± 15; Revertants per Plate with TA 100, Without S-9 ([1]; Dose 50 μl): 154 ± 14; Revertants per Plate with TA 100, With S-9 ([1]; Dose 250 μl): 149 ± 13; Revertants per Plate with TA 100, Without S-9 ([1]; Dose 250 μl): 158 ± 11; mutagenicity ([1]; TA 100, with or without S-9): not mutagenic; lens clarity compared to diabetic control group [4]: higher clarity (less opacity); Resultant effects (appearance of albumin incubation) (bovine serum albumin): dark brown, fluid; also recorded: remained fluid; Blood Glucose (mean + SEM) [5]: 22.63 ± 3.00 mM; Percent Glycated Haemoglobin (HbAlc) [5]: 4.49 ± 0.14%
